The values that follow come from patent US20190224341A1, “RENAL CLEARABLE ORGANIC NANOCARRIERS” (The General Hospital Corporation, priority 2016, published 2019).

The data set in a line: In vivo biodistribution and pharmacokinetics in CD-1 mice. The note with it: i.v. 10 nmol.

Procedure: Six weeks old CD-1 mice (male; 25-30 g) were purchased from Charles River Laboratories (Wilmington, Mass.). Mice were maintained under anesthesia by intraperitoneal injection with 100 mg/kg ketamine and 10 mg/kg xylazine (Webster Veterinary, Fort Devens, MA) for the entire duration of the experiment. The end of the tail was cut to enable blood extraction. Before injection, blood was then sampled in heparinized capillary tubes (Fisher Scientific, Pittsburgh, Pa.) as a reference and collected blood was stored in an ice box to prevent clotting. […] Mice were imaged using the in-house built real-time intraoperative MR imaging system. A 760 nm excitation laser source (4 mW/cm) was used with white light (400-650 nm; 40,000 lux). Color and MR fluorescence images were acquired simultaneously with customized software at rates of up to 15 Hz over a field of view with 15 cm in diameter. After 4 h post-injection, mice were sacrificed to image organs and collected urine from the bladder. At least 3 mice were analyzed for each sample.
The collected blood samples were centrifuged for 20 min at 3000 rpm in order to separate serum and blood plasma, and supernatants were then filled into capillary microtubes. Fluorescence intensities of the microtubes were measured using the in-house built MR imaging system. […]

As to `CC1(C)C(/C=C/C2=C(c3ccc(CCC(=O)O)cc3)C(=C/C=C3/N(CCC[N+](C)(C)C)c4ccc(S(=O)(=O)O)cc4C3(C)C)/CCC2)=[N+](CCC[N+](C)(C)C)c2ccc(S(=O)(=O)O)cc21` [ZW800-1C], the “Signal-to-background ratio (SBR) of each organ against muscle” value (4 h, resected organs) is “highest SBR in the kidneys”. Where the note is “4 h post-injection”, the “Biodistribution by NIR fluorescence imaging” value was “excretes to the bladder 4 h after injection”.
